Data published in US20050123514A1, “Increased transduction using ABC transporter substrates and/or inhibitors” (priority 2003, published 2005).
Several values for one entry are separate records, joined by “and”; a condition that tells them apart may be missing. Equal values may be shown once. Read-outs that look alike come from different tables or passages of the source.

How the values were obtained:
[1] = test system: CD34+ cells from mobilized peripheral blood; assay type: cell-based, human
Description: (§1) Supernatant was collected repeatedly 24 to 72 hours after transfection, pooled, and then concentrated by ultracentrifugation at 10,000 rpm for 12 hours. Clinical grade vector was packaged similarly in 293F cells under more stringent laboratory conditions. Supernatant was harvested at 24 hours and 36 hours after transfection. The supernatant is filtered through a series of cartridge filters of decreasing pore diameter, then concentrated by ultrafiltration. Benzonase is added by diafiltration to destroy contaminating plasmid and cellular DNA. The material is applied to a Sephacryl-500 gel filtration column then filtered through a 0.22-micron filter.
Cells: Frozen CD34 positive cells (greater than 98% purity) derived from adult bone marrow, adult G-CSF mobilized peripheral blood and cord blood were purchased from AllCells (Berkeley, Calif.). Additional peripheral blood CD34 cells mobilized by cyclophosphamide and GCSF and were generous gifts from Dr. Christian Chabannon.
(§2) Research grade vector transduction with VRX430: CD34+ cells were thawed according to manufacturer's specifications, then cultured at 37° C. for 1 hour. Cells were cultured with an inhibitor at 37° C. for 0 to 90 minutes before addition of vector. MOI 25 to 50 of vector was added to plates coated with 1.5 μg/cm^2 Retronectin (Takara, Japan), then cells were added to the plate and cultured at 37° C.. Twenty-four hours after inhibitor addition, the cells were washed free of vector and drug and were resuspended in fresh medium containing MOI 25 of vector and cultured at 37° C.. CD34+ cells were cultured in IMDM (Invitrogen, Carlsbad, Calif.) supplemented with 1× BIT (Stem Cell Technologies, Vancouver BC) and 25 to 100 ng/ml of TPO, Flt-3L and SCF (R&D Systems, Minneapolis, Minn.). Cells used in in vitro assays were washed free of vector four days after the start of transduction. Cells transplanted into mice were washed free of vector two days after the start of transduction and immediately transplanted into mice.
Cell culture: Four days after transduction CD34 positive cells were washed free of vector and maintained in liquid culture in IMDM plus 1× BIT supplemented with 25 ng/mL TPO, SCF, and Flt-3L, or plated in CFU and LTC-IC assays. Five hundred to 1000 cells were plated in methylcellulose (H3231, Stem Cell Technologies, Vancouver, BC) supplemented with […] and 1 U/mL EPO. Colony growth was scored two weeks after plating and was analyzed by flow cytometry for GFP expression. One to 3×10^5 cells were overlayed upon MS-5 stromal cells for the LTC-IC assay. The cells underwent demidepopulation weekly, in which half of the medium was removed and replaced with fresh medium. The cells collected in each demidepopulation were analyzed by flow cytometry. After 5 weeks, a mix of adherent and non-adherent cells was plated into methylcellulose supplemented as above for formation of secondary CFU. Colonies were scored three weeks after plating and analyzed for GFP expression by flow cytometry.
CD34+ cells isolated from mobilized peripheral blood were cultured short and long term.

[2] = test system: human CD34 positive cells; assay type: cell-based; settings: for effect on transduction efficiency (in words): summary statements
[3] = test system: SCID repopulating cells (SRC); experiment: NOD-SCID xenotransplantation of transduced cord blood CD34+ cells (SRC), primary transplant; assay type: in vivo, NOD-SCID mice
Description: (§3) Mice: NOD.CB17-Prkdcscid/J (formerly known as NOD/LtSz-Prkdcscid/J) mice were purchased from Jackson Laboratories (Bar Harbor, Me.) and housed in microisolatorcages at Bioqual, Inc (Rockville, Md.). All experiments were approved by the ACUC. 6 to 7 week old mice were sublethally irradiated with 350 cGy (^137Cs source), then transplanted the next day with 2×10^5 cord blood CD34+ cells. Mice sacrificed at 6 to 8 weeks were tested for EGFP expression in CD45+, CD34+, CD33+, CD19+ and CD3+ subsets from the bone marrow using PE conjugated antibodies (clones HI30, 581, WM53, HIB19, UCHT1, respectively, Pharmingen, San Diego, Calif.) by flow cytometry (FACSCaliber, Becton Dickinson, Franklin Lakes, N.J.). Mice sacrificed at 14 weeks were analyzed for EGFP expression in the CD45+, CD34+, CD33+, CD19+ and CD3+ subsets in the marrow, spleen and thymus. For secondary transplantation, half of the total marrow recovered from the primary mouse was transplanted into 350 cGy irradiated secondary recipient NOD.CB17-Prkdcscid/J mice. Mice were sacrificed after 8 weeks and analyzed for EGFP expression in the CD45+, CD33+ and CD19 subsets from the bone marrow.

[4] = test system: SCID repopulating cells (SRC); experiment: Secondary transplantation of SRCs in NOD/SCID mice; assay type: in vivo
Description: as §3
NOD-SCID mice were given a primary transplantation of stem cells isolated from cord blood in the presence of antibody to the murine IL-2 receptor beta chain to inhibit natural killer cell lysis of the transplanted cells. […] Bone marrow was isolated at 14 weeks post transplantation. Total recovered cells (a mixture of human and mouse) were transplanted into naïve NOD/SCID recipient mice at 15-20×10^6 cells per mouse. During secondary transplantation, mice were not given antibody to the murine IL-2 receptor due to inhibitory cost; therefore the percentage engraftment is much lower. Mice were sacrificed at 8 weeks post transplantation, and the percentage of GFP-positive human cells was assessed by flow cytometry (Table 3).

[5] = test system: Hematopoietic stem cells (hsc); settings: research grade vector
Description: as §1
as §2, with “Cells transplanted into mice were washed free of vector two days after the start of transduction and immediately transplanted into mice.” left out
Cell culture: Four days after transduction CD34 positive cells were washed free of vector and maintained in liquid culture in IMDM plus 1× BIT supplemented with 25 ng/mL TPO, SCF, and Flt-3L, or plated in CFU and LTC-IC assays. […] Colony growth was scored two weeks after plating and was analyzed by flow cytometry for GFP expression. […] The cells collected in each demidepopulation were analyzed by flow cytometry. […] Colonies were scored three weeks after plating and analyzed for GFP expression by flow cytometry.

[6] = bone marrow, 8 weeks post secondary transplantation, individual mice, cells transduced + verapamil

Question: What does the source list for sodium orthovanadate?
Answer: effect on transduction efficiency (in words) [1]: reduced efficiency of gene transfer; effect on transduction efficiency (in words) [2]: did not increase transduction efficiency

Question: How did the “CD34 GFP” value [1] turn out when `CCCN(CCC)S(=O)(=O)c1ccc(C(=O)O)cc1` [probenecid] was run?
Answer: 9%

Question: And the “CFU GFP” value [1]?
Answer: 8%

Question: What about the “LTC GFP” value [1] of the same molecule?
Answer: 11%

Question: What about the “Secondary CFU GFP” value [1] of the same molecule?
Answer: 4%

Question: What about the “effect on transduction efficiency (in words)” value (“effect” for short) [1] of the same molecule?
Answer: did not increase transduction efficiency

Question: And the increase in transduction ([2]; hematopoietic cells)?
Answer: less than 2 fold

Question: Which “CD34 GFP” value [1] does the source give for `COc1ccc([C@@H]2Sc3ccccc3N(CCN(C)C)C(=O)[C@@H]2OC(C)=O)cc1` [diltiazem] here?
Answer: 19%

Question: What about the “CFU GFP” value [1] of the same molecule?
Answer: 15%

Question: What about the “LTC GFP” value [1] of the same molecule?
Answer: 23%

Question: What about the “Secondary CFU GFP” value [1] of the same molecule?
Answer: 26%

Question: What about the “effect” value [1] of the same molecule?
Answer: significant increase in transduction efficiency

Question: What about the “effect” value [2] of the same molecule?
Answer: increased transduction to levels similar to verapamil

Question: Which “frequency and distribution of hematopoietic subsets” value ([3]; NOD-SCID mice, cells transduced in verapamil) does the source give for `COc1ccc(CCN(C)CCCC(C#N)(c2ccc(OC)c(OC)c2)C(C)C)cc1OC` (stereo not drawn) [verapamil] here?
Answer: unchanged

Question: What about the “increase in SRC transduction over levels in the absence of verapamil” value ([3]; SRC recovered from the bone marrow of NOD-SCID mice) of the same molecule?
Answer: three to four-fold

Question: And the “GFP expression in repopulating cells” value ([3]; bone marrow and spleen, 14 weeks post-hsc transfer, FIG. 5)?
Answer: high percentage of GFP positive repopulating stem cells

Question: And the “GFP expression in human CD45, CD34, CD33, CD19 cells” value ([3]; bone marrow, 6-8 weeks post-hsc transfer, 50 and 75 μg/ml verapamil pooled, FIG. 4)?
Answer: significantly higher percentage of GFP expressing cells

Question: And the “percentage of GFP-positive cells versus transduced without drug” value ([4]; CD45, CD19 and CD33 lineages, secondary transplantation)?
Answer: increased percentage of GFP-positive cells

Question: And the “% CD45 Engraft.” value [4, 6]?
Answer: <0.1% and 0.3%

Question: What about the “% GFP CD19” value [4, 6] of the same molecule?
Answer: 100% and 98%

Question: What about the “% GFP CD33” value [4, 6] of the same molecule?
Answer: 38% and 51%

Question: And the “% GFP CD45” value [4, 6]?
Answer: 59% and 97%

Question: What about the CD34 copy number [1] of the same molecule?
Answer: 3.2

Question: And the “Secondary CFU GFP” value [1]?
Answer: 56%

Question: And the “copy numbers, increase versus no verapamil” value ([5]; long-term cultures)?
Answer: 8 fold

Question: And the “copy numbers, increase versus no verapamil” value ([5]; short-term cultures)?
Answer: 2 fold

Question: What about the “percentage of transduced cells” value ([5]; with verapamil, both short and long term cultures) of the same molecule?
Answer: 70-80%

Question: With `COC(=O)[C@H]1[C@H]2C[C@@H]3c4[nH]c5cc(OC)ccc5c4CCN3C[C@H]2C[C@@H](OC(=O)c2cc(OC)c(OC)c(OC)c2)[C@@H]1OC` [reserpine] as the molecule, how does the “CD34 GFP” value [1] read?
Answer: 3%

Question: What about the “CFU GFP” value [1] of the same molecule?
Answer: 5%

Question: What about the “LTC GFP” value [1] of the same molecule?
Answer: 5%

Question: What about the “Secondary CFU GFP” value [1] of the same molecule?
Answer: 3%

Question: What about the “effect” value [1] of the same molecule?
Answer: did not increase transduction efficiency

Question: What about the “effect” value [2] of the same molecule?
Answer: did not increase transduction efficiency

Question: Which results are given for `CC(C)c1nc(CN(C)C(=O)N[C@H](C(=O)N[C@@H](Cc2ccccc2)C[C@H](O)[C@H](Cc2ccccc2)NC(=O)OCc2cncs2)C(C)C)cs1` [ritonavir]?
Answer: effect on transduction efficiency (in words) [1]: increased transduction efficiency; percentage of GFP-expressing cells compared with diltiazem or verapamil ([1]; mPB short and long term cultures, ritonavir 5 μM or 20 μM, FIG. 3): did not increase the percentage of GFP-expressing cells as well as diltiazem or verapamil
